This passage reports IC50 and inhibition results from patent publication US10017492B2 (KANGPU BIOPHARMACEUTICALS, LTD., priority 2014, dated 2018).

For test [1], the system named is MM.1S cells (myeloma cells). Kind of test: Cell proliferation assay (MTS), MM.1S myeloma cells. Format: cell-based. As to conditions: Homo sapiens, MM1.S, 72 hours, read-out: IC50 values of MMIS Inhibition. As for the experimental part: MM.1S cells (myeloma cells) (ATCC, catalog number CRL-2974) were seeded at 1.8×10^3 per well to a 96-well culture plate containing […] (Gibco, catalog number A10491-01), and were incubated in an incubator for 24 hours at 37° C. under 5% CO2. Compounds were prepared as 20 mM stock solutions with DMSO (Sigma, catalog number D2650), and were diluted with the medium to the desired concentration (the final concentration of DMSO was 0.5%) and then were added to each well, incubated in an incubator for 72 hours at 37° C. under 5% CO2. Then, 20 μL MTS (Promega, catalog number G3581) was added to each well, and further incubated for 1-4 hours in an incubator at 37° C. under 5% CO2. OD490 nm was detected with OD650 nm as reference. The control, a solution containing 0.5% DMSO medium, was as 0% inhibition. GraphPad Prism 5 was used, slope was allowed to change to make the dose-effect curve and IC50 values were calculated, shown in table 2 for details.

In another test the test system is TNF-α. Kind of test: TNF-α activity inhibiting assay (LPS-stimulated peripheral blood, ELISA). Format: cell-based, human. As to conditions: Homo sapiens, compound 100 nM, diluted peripheral blood of healthy volunteers, LPS 10 ng/mL, 6 hours, read-out: Inhibitory Rate on TNF-α (%). As for the experimental part: TNF-α Activity Inhibiting Assay
Peripheral blood from healthy volunteers was collected and collected with EDTA anticoagulant tubes. After being diluted 5-fold with 1640 medium (Gibco, catalog number 11875-093, USA), the blood was added to 96-well cell culture plates (Costar, catalog number 3599, USA) and then treated with 10 μL solution of the compound of general formula (I) of the present invention in DMSO (Sigma, catalog number D2650, USA). The final concentration of the compound was 100 nM, and the final concentration of DMSO was 0.2%. After incubation for 60 minutes in an incubator at 37° C. under 5% CO2, 10 μL LPS (Sigma, catalog number L-2880, USA) was added to the reaction system, and the final concentration was 10 ng/mL. After further culturing for 6 hours in the incubator at 37° C. under 5% CO2, the supernatant was collected. The content of TNF-α was determined by ELISA (BD Biosciences, catalog number 555212, USA). Absorbance was detected at OD450 nm with a microplate reader, with OD 650 nm as reference. The control, a solution containing 0.2% DMSO medium, was as 0% inhibition. Raw data and standard curves were recorded. The four-parameter drug inhibition curve was plotted by XL-fit software and the inhibition rate of each compound was calculated, as shown in Table 1.
Background: An ELISA detects its analyte on a solid surface through an enzyme-linked reagent.

Regarding `COc1ccc(F)c(COc2cccc3c2CN(C2CCC(=O)NC2=O)C3=O)c1` (stereo not shown) [Compound A331, 3-(4-((2-fluoro-5-methoxybenzyl)oxy)-1-oxoisoindolin-2-yl)piperidine-2,6-dione], the IC50 (commonly the concentration that inhibits the measured activity by half) in test [1] is less than 300 nM. In addition, the inhibition at 0.1 µM in the test on TNF-α is not below 50%.

As to `CN(C)C(=O)Oc1ccc(F)c(CNc2cccc3c2CN(C2CCC(=O)NC2=O)C3=O)c1` (stereo not shown) [Compound A378, 3-(((2-(2,6-dioxopiperidin-3-yl)-1-oxoisoindolin-4-yl)amino)methyl)-4-fluorophenyl dimethylcarbamate], in test [1], the IC50 was not below 300 nM. The inhibition at 0.1 µM in the test on TNF-α is less than 50%.

For `CNc1cccc(COc2cccc3c2CN(C2CCC(=O)NC2=O)C3=O)c1F` (stereo not shown) [Compound A385, 3-(4-((2-fluoro-3-(methylamino)benzyl)oxy)-1-oxoisoindolin-2-yl)piperidine-2,6-dione], the IC50 in test [1] is less than 300 nM. The inhibition at 0.1 µM in the test on TNF-α was not below 50%.

Regarding `O=C1CCC(N2Cc3c(NCc4cc(OCCOC(=O)N5CCCC5)ccc4F)cccc3C2=O)C(=O)N1` (stereo not shown) [Compound A374, 2-(3-(((2-(2,6-dioxopiperidin-3-yl)-1-oxoisoindolin-4-yl)amino)methyl)-4-fluorophenoxy)ethyl pyrrolidine-1-carboxylate], in test [1], the IC50 was less than 300 nM. The inhibition at 0.1 µM in the test on TNF-α is not below 50%.

Turning to `O=C1CCC(N2Cc3c(NCc4cc(OCCN5CCCC5)ccc4F)cccc3C2=O)C(=O)N1` (stereo not shown) [Compound A376, 3-(4-((2-fluoro-5-(2-(pyrrolidin-1-yl)ethoxy)benzyl)amino)-1-oxoisoindolin-2-yl)piperidine-2,6-dione], the IC50 in test [1] is less than 300 nM. Also, the inhibition at 0.1 µM in the test on TNF-α is not below 50%.

As to `[2H][C@]1(N2Cc3c(NCc4ccc(CN5CCOCC5)cc4)cccc3C2=O)CCC(=O)NC1=O` [Compound A373, (S)-3-deuterium-3-(4-((4-(morpholinomethyl)benzyl)amino)-1-oxoisoindolin-2-yl)piperidine-2,6-dione], the IC50 in test [1] is less than 300 nM. For the same compound, in the test on TNF-α, the inhibition at 0.1 µM was not below 50%.

As to `[2H][C@]1(N2Cc3c(NCc4cc(CN5CCOCC5)ccc4F)cccc3C2=O)CCC(=O)NC1=O` [Compound A401, (S)-3-deuterium-3-(4-((2-fluoro-5-(morpholinomethyl)benzyl)amino)-1-oxoisoindolin-2-yl)piperidine-2,6-dione], the IC50 in test [1] is less than 300 nM. Also, in the test on TNF-α, the inhibition at 0.1 µM is not below 50%.

For `COc1ccc(CNc2cccc3c2CN(C2CCC(=O)NC2=O)C3=O)cc1OC` (stereo not shown) [Compound A349, 3-(4-((3,4-dimethoxybenzyl)amino)-1-oxoisoindolin-2-yl)piperidine-2,6-dione], the IC50 in test [1] was not below 300 nM. In addition, the inhibition at 0.1 µM with TNF-α is less than 50%.

`CNc1ccc(F)c(COc2cccc3c2CN(C2CCC(=O)NC2=O)C3=O)c1` (stereo not shown) [Compound A390, 3-(4-((2-fluoro-5-(methylamino)benzyl)oxy)-1-oxoisoindolin-2-yl)piperidine-2,6-dione]: the IC50 in test [1] is not below 300 nM. Also, the inhibition at 0.1 µM in the test on TNF-α was not below 50%.

In the case of `COc1cc(CNc2cccc3c2CN(C2CCC(=O)NC2=O)C3=O)cc(OC)c1` (stereo not shown) [Compound A355, 3-(4-((3,5-dimethoxybenzyl)amino)-1-oxoisoindolin-2-yl)piperidine-2,6-dione], the IC50 in test [1] was not below 300 nM. The inhibition at 0.1 µM with TNF-α is less than 50%.

For `O=C1CCC(N2Cc3c(OCc4cc(CN5CCOCC5)ccc4F)cccc3C2=O)C(=O)N1` (stereo not shown) [Compound A398, 3-(4-((2-fluoro-5-(morpholinomethyl)benzyl)oxy)-1-oxoisoindolin-2-yl)-piperidine-2,6-dione], in test [1], the IC50 is less than 300 nM. In the test with TNF-α, the inhibition at 0.1 µM was not below 50%.

With `N#Cc1cccc(CNc2cccc3c2CN(C2CCC(=O)NC2=O)C3=O)c1F` (stereo not shown) [Compound A360, 3-(((2-(2,6-dioxopiperidin-3-yl)-1-oxoisoindolin-4-yl)amino)methyl)-2-fluorobenzonitrile], the IC50 in test [1] is less than 300 nM. The inhibition at 0.1 µM in the test on TNF-α is less than 50%.

Take `O=C1CCC(N2Cc3c(NCc4cccc(O)c4F)cccc3C2=O)C(=O)N1` (stereo not shown) [Compound A359, 3-(4-((2-fluoro-3-hydroxybenzyl)amino)-1-oxoisoindolin-2-yl)piperidine-2,6-dione]: the IC50 in test [1] is less than 300 nM. In addition, the inhibition at 0.1 µM in the test with TNF-α was not below 50%.

Consider `Cc1ccc(CNc2cccc3c2CN(C2CCC(=O)NC2=O)C3=O)cc1C` (stereo not shown) [Compound A350, 3-(4-((3,4-dimethylbenzyl)amino)-1-oxoisoindolin-2-yl)piperidine-2,6-dione], for which the half-maximal inhibitory concentration (IC50) in test [1] is less than 300 nM. In addition, the inhibition at 0.1 µM in the test with TNF-α was less than 50%.

For the compound `CNc1cccc(CNc2cccc3c2CN(C2CCC(=O)NC2=O)C3=O)c1F` (stereo not shown) [Compound A372, 3-(4-((2-fluoro-3-(methylamino)benzyl)amino)-1-oxoisoindolin-2-yl)piperidine-2,6-dione], the IC50 in test [1] is less than 300 nM. The inhibition at 0.1 µM in the test with TNF-α was not below 50%.

Take `O=C1CCC(N2Cc3c(OCc4ccc(CN5CCOCC5)cc4)cc(F)cc3C2=O)C(=O)N1` (stereo not shown) [Compound A327, 3-(6-fluoro-4-((4-(morpholinomethyl)benzyl)oxy)-1-oxoisoindolin-2-yl)-piperidine-2,6-dione]: the IC50 in test [1] is less than 300 nM. The inhibition at 0.1 µM in the test with TNF-α was less than 50%.

With `[2H][C@]1(N2Cc3c(OCc4cccc(OC)c4F)cccc3C2=O)CCC(=O)NC1=O` [Compound A380, (S)-3-deuterium-3-(4-((2-fluoro-3-methoxybenzyl)oxy)-1-oxoisoindolin-2-yl)piperidine-2,6-dione], the IC50 in test [1] was less than 300 nM. The inhibition at 0.1 µM in the test with TNF-α was less than 50%.

As to `O=C1CC[C@H](N2Cc3c(NCc4ccc(CN5CCOCC5)cc4)cccc3C2=O)C(=O)N1` [Compound A346, (S)-3-(4-((4-(morpholinomethyl)benzyl)amino)-1-oxoisoindolin-2-yl) piperidine-2,6-dione], in test [1], the IC50 was less than 300 nM. Besides, the inhibition at 0.1 µM in the test with TNF-α is not below 50%.

As for `COc1ccc(F)c(CNc2cccc3c2CN([C@H]2CCC(=O)NC2=O)C3=O)c1` [Compound A340, (S)-3-(4-((2-fluoro-5-methoxybenzyl)amino)-1-oxoisoindolin-2-yl)piperidine-2,6-dione], in test [1], the IC50 is less than 300 nM. For the same compound, the inhibition at 0.1 µM in the test with TNF-α is less than 50%.

Regarding `O=C1CCC(N2Cc3c(NCc4cc(OCCN5CCOCC5)ccc4F)cccc3C2=O)C(=O)N1` (stereo not shown) [Compound A368, 3-(4-((2-fluoro-5-(2-morpholinoethoxy)benzyl)amino)-1-oxoisoindolin-2-yl)piperidine-2,6-dione], the IC50 in test [1] was less than 300 nM. For the same compound, in the test on TNF-α, the inhibition at 0.1 µM was not below 50%.

Consider `[2H][C@@]1(N2Cc3c(OCc4ccc(OC)cc4F)cccc3C2=O)CCC(=O)NC1=O` [Compound A392, (R)-3-deuterium-3-(4-((2-fluoro-4-methoxybenzyl)oxy)-1-oxoisoindolin-2-yl)piperidine-2,6-dione], for which the IC50 in test [1] was less than 300 nM. Also, the inhibition at 0.1 µM in the test with TNF-α was not below 50%.

As for `O=C1CCC(N2Cc3c(NCc4ccc(O)cc4F)cccc3C2=O)C(=O)N1` (stereo not shown) [Compound A396, 3-(4-((2-fluoro-4-hydroxybenzyl)amino)-1-oxoisoindolin-2-yl)piperidine-2,6-dione], the IC50 in test [1] is not below 300 nM. Moreover, in the test on TNF-α, the inhibition at 0.1 µM is less than 50%.

Turning to `O=C1CCC(N2Cc3c(NCc4cc(O)ccc4F)cccc3C2=O)C(=O)N1` (stereo not shown) [Compound A364, 3-(4-((2-fluoro-5-hydroxybenzyl)amino)-1-oxoisoindolin-2-yl)piperidine-2,6-dione], the IC50 in test [1] is less than 300 nM. Besides, the inhibition at 0.1 µM with TNF-α was less than 50%.

`CN1CCN(CCOc2ccc(F)c(CNc3cccc4c3CN(C3CCC(=O)NC3=O)C4=O)c2)CC1` (stereo not shown) [Compound A377, 3-(4-((2-fluoro-5-(2-(4-methylpiperazin-1-yl)ethoxy)benzyl)amino)-1-oxoisoindolin-2-yl)piperidine-2,6-dione]: the IC50 in test [1] is not below 300 nM. The inhibition at 0.1 µM in the test with TNF-α is less than 50%.

On to `CN(C)CCOc1ccc(F)c(CNc2cccc3c2CN(C2CCC(=O)NC2=O)C3=O)c1` (stereo not shown) [Compound A363, 3-(4-((5-(2-(Dimethylamino)ethoxy)-2-fluorobenzyl)amino)-1-oxoisoindolin-2-yl)piperidine-2,6-dione], for which the IC50 in test [1] was not below 300 nM. Moreover, the inhibition at 0.1 µM in the test on TNF-α was less than 50%.

For `Cc1cccc(CNc2cccc3c2CN(C2CCC(=O)NC2=O)C3=O)c1F` (stereo not shown) [Compound A367, 3-(4-((2-fluoro-3-methylbenzyl)amino)-1-oxoisoindolin-2-yl)piperidine-2,6-dione], in test [1], the IC50 is less than 300 nM. Moreover, in the test on TNF-α, the inhibition at 0.1 µM is not below 50%.
